In patent publication US20090215713A1, “Use of atp for the manufacture of a medicament for the prevention and treatment of oxidative stress and related conditions” (priority 2004, published 2009):

How the values were obtained:
[1] = tested on: IL-10; test: LPS+PHA-induced IL-10 secretion in whole blood under oxidative stress (H2O2); type: cell-based, human
Procedure: FIG. 11 Effect of ATP on LPS+PHA-induced IL-10 secretion in whole blood from healthy subjects under conditions of oxidative stress. Two concentrations of H2O2 (1 and 10 mM) were added to whole blood, together with the indicated concentrations of ATP. Then, blood was exposed to 10 μg/ml LPS and 1 μg/ml PHA, and incubated for 24 h. The IL-10 released into the supernatants was analyzed using the ELISA method. […] Data are expressed as the mean values; error bars represent SEM.
Whole blood of healthy subjects was collected as described for Experiment 2, and pre-incubated with 1 or 10 mM H2O2 at 5% CO2 and 37° C. for 15 min. Then, ATP was added to the blood at final concentrations of 1-300 μM for the 30 min incubation step, and then incubated as in Experiment 2 with LPS/PHA for 24 hours.

[2] = tested on: TNF-α; test: LPS+PHA-induced TNF-α secretion in whole blood from healthy subjects (ELISA); type: cell-based, human
Procedure: FIG. 7 Effect of ATP on LPS+PHA-induced TNF-α secretion in whole blood from healthy subjects. The whole blood was exposed to 10 μg/ml LPS and 1 μg/ml PHA with indicated concentrations of ATP for 24 h. The TNF-α released into the supernatants was analyzed using the ELISA method. Results are expressed in percentage, 100% being the TNF-α release under stimulation by LPS+PHA without ATP. […] Data are expressed as the mean values; error bars represent SEM. *, different from control (stimulation by LPS+PHA without ATP) (P<0.05).
FIG. 13 Effect of different purinergic compounds on LPS+PHA-induced TNF-α secretion in whole blood. The whole blood was exposed to 10 μg/ml LPS and 1 μg/ml PHA with the indicated purinergic compounds at the concentration of 300 μM for 24 h. The TNF-α released into the supernatant was analyzed using the ELISA method. Results are expressed in percentage, 100% being the TNF-α release under stimulation by LPS+PHA without addition of a purinergic compound (control). […] The TNF-α release induced by LPS+PHA from whole blood was not inhibited by UTP, UDP or CTP. Data are expressed as the mean values; error bars represent SEM.
Blood was collected from 8 healthy subjects in heparin containing vacutainer tubes. All incubations were performed in duplicate. ATP was dissolved in RPMI 1640 culture medium, at a final concentration of 1-300 μM, and blood pre-incubated with ATP at 5% CO2 at 37 DC for 30 min. After stimulation with LPS en PHA (10 and 1 μg/ml final concentration, respectively), the plates were incubated in 5% CO2 at 37° C. for 24 h. Cell-free supernatant fluids were then collected by centrifugation (6000 rpm, 10 min at 4° C.) and stored at −20° C. until tested for presence of cytokines. All cytokines were quantified by means of PeliKine Compact human ELISA kits (CLB/Sanquin, The Netherlands), based on appropriate and validated sets of monoclonal antibodies.
Whole blood was collected and stimulated with LPS+PHA as described for Experiment 2. ATP, dissolved in RPMI 1640 culture medium, was added to the blood at a final concentration of 1-1000 μM. The agonists were added in the same way as ATP, however their stock solutions are prepared in PBS and further diluted in medium. All incubations are performed in duplicate.

[3] = tested on: mice bearing colon tumour; conditions: daily intraperitoneal injections of 25 mmol/L for 10 days; cited from earlier work
[4] = tested on: GSH and GSH/GSSG ratios; test: Intracellular GSH and GSH/GSSG ratios in whole blood after γ-irradiation; type: cell-based; conditions: 300 μM ATP, 16 Gy
Procedure: Samples with 5 ml of blood were pre-incubated with 300 μM ATP or medium (control) for 30 minutes. Then, at t=0, each blood sample was irradiated with γ-radiation at a dose of 16 Gy. Preceding irradiation (baseline) and at 1 h, 3 h and 5 h post-irradiation, a sample was taken for analysis of intracellular GSH and GSH/GSSG ratios according to standard methods, as well as for cytokine analysis by the ELISA method.

[5] = ATP infusions in a patient with rheumatoid arthritis; type: in vivo, human
Procedure: (§1) Patients with different diseases received infusions of 10-75 μg/kg·min over 8-24 h, at intervals of 1-4 weeks in different randomized clinical trials. In all cases, the first. infusion was given under clinical supervision, subsequent infusions were given in the setting of private homes. Preliminary results in small numbers of patients with persistent rheumatoid arthritis, chronic fatigue syndrome, and cancer in the pre-terminal stage, and lung cancer during curative radiotherapy are given below.
[…] […] DAS score had decreased from 5.80 to 3.09 and CRP had decreased from 43 to 6 mg/L.; all other blood values were normal. MD's conclusion: marked decease of disease activity.

[6] = ATP infusions in patients with chronic fatigue syndrome (double-blind); type: in vivo, human
Procedure: as §1
In a double-blind design, 8 out of 9 patients with chronic fatigue syndrome who had been treated with ATP (8 infusions of 24 h), spontaneously reported the following unexpected beneficial effects of ATP infusion: • less pain on the day after the infusion • feeling better during the 8-week infusion period than before or afterwards • more physical energy on the day after the infusion • felt better during the complete infusion period: less pain, better performance status, happier, mentally stronger, less tired, sleeping better • fewer ulcers during the infusion period • feeling less weak/feeble on the day after the infusion, feeling muscles “in a positive sense” In 5 out of 9 patients, these effects were already noted on the day after the first ATP infusion. […] In the placebo group, not even one out of 9 patients spontaneously reported any of such improvements.

[7] = cited from earlier work
[8] = after 10 weekly infusions, 10-15 μg/kg·min

## Nc1ncnc2c1ncn2[C@@H]1O[C@H](COP(=O)(O)OP(=O)(O)OP(=O)(O)O)[C@@H](O)[C@H]1O [ATP, Adenosine 5′-triphosphate]
[1]; 300 μM ATP, 1 or 10 mM H2O2, LPS-PHA
  increase in IL-10 release: 50-60%
[1]; 1 or 10 mM H2O2
  effect on LPS+PHA-induced IL-10 release: significantly increased
[2]; 300 μM, 24 h
  effect of purinergic compound on LPS+PHA-induced TNF-α release: greatest inhibition
[2]; LPS-PHA stimulated whole blood, Experiment 4
  effect on inhibiting TNFα and stimulating IL-10 production: more effective
[2]; indicated ATP concentrations, 24 h
  effect on LPS+PHA-induced TNF-α release: significantly inhibited
[3]
  effect on host weight loss: significant inhibition
[4]
  effect on irradiation-induced decrease in GSH and GSH/GSSG ratios: attenuation
[5]; after 10 infusions
  joint swelling and pain: markedly decreased
[5]; [8]
  CRP: 6 mg/L
  DAS score: 3.09
[5]; before ATP
  CRP: 43 mg/L
  DAS score: 5.80
[6]; 8 infusions of 24 h
  patients spontaneously reporting beneficial effects: 8 out of 9
[6]; human, in vivo
  patients noting these effects on the day after the first ATP infusion: 5 out of 9
[7]; phase I/II, 2 to 3 intravenous courses of 96 hours
  body weight: stabilisation
[7]; phase II, after 4 ATP courses
  average weight gain: 1.3 kg
